From patent US20170152569A1, “POLYMORPHISM IN THE BCL2 GENE DETERMINES RESPONSE TO CHEMOTHERAPY” (HIDENSEQ, priority 2014, published 2017)

Legend:
[1] = tested on: HeyA8 cells; experiment: Sensitivity of transfected HeyA8 cells to paclitaxel (cell viability, PI/FACS); type: cell-based
Method: HeyA8 ovarian cell lines were grown at 37° C. with 5% CO2 in MEM-EAGLE medium supplement with 2 mM L-glutamine, 1.5 g/L sodium bicarbonate, 4.5 g/L glucose, 10 mM HEPES, 1.0 mM sodium pyruvate and 10% fetal bovine serum (FBS).
(§1) Propidium iodide (PI) was added to the cell suspension at a concentration of 1 μg/ml. Sorting and analyses were carried out in a Gallios flow cytometer cell sorter collecting 10,000 events. Dead cells were excluded by gating on forward and side scatter and by eliminating PI-positive events.
Cells expressing GFP-empty vector or one of three types of GFP-BCL2 variants were measured for their sensitivity to paclitaxel. Following 24 hours of transfection with one of the indicated plasmids, cells were introduced to 100 or 200 nM of paclitaxel for 24 hours incubation.
(§2) To examine the effect of rs1801018 variant on cells sensitivity to paclitaxel, GFP-empty vector control or one of three GFP-BCL2 variants (wild-type, rs1801018 variant or random) were over-expressed in cells, which then were tested with paclitaxel. Cells were incubated with increasing concentrations of paclitaxel as indicated in methods and in FIG. 3. […] To study the relationship between resistance to paclitaxel and BCL2 gene copy numbers, a Bcl2 gradient assay was performed. The assay is designed to examine cell sensitivity to paclitaxel in the presence of increasing levels of BCL2 copies. HeyA8 cells were transfected with 5 different doses of wt-BCL2-GFP. 24 hours post transfection cells were treated with paclitaxel, and 24 hours post incubation cells viability was measured by FACS.

[2] = tested on: HeyA8 cells; experiment: Bcl2 gradient assay: cell sensitivity to paclitaxel with increasing wt-BCL2-GFP doses; type: cell-based; conditions: HeyA8 cells transfected with increased concentrations of BCL2 mRNA (5 doses of wt-BCL2-GFP); viability by FACS 24 hours after paclitaxel
Method: as §1, §2

[3] = tested on: Ovarian Cancer (OV); conditions: paclitaxel as first line; cited from earlier work
[4] = tested on: Uterine Corpus Endometrial carcinoma (UCEC); conditions: of 83 UCEC patients, paclitaxel as first line; cited from earlier work

Structure (SMILES): CC(=O)O[C@H]1C(=O)[C@@]2(C)[C@H]([C@H](OC(=O)c3ccccc3)[C@]3(O)C[C@H](OC(=O)[C@H](O)[C@@H](NC(=O)c4ccccc4)c4ccccc4)C(C)=C1C3(C)C)[C@]1(OC(C)=O)CO[C@@H]1C[C@@H]2O [paclitaxel, (2α,4α,5β,7β,10β,13α)-4,10-Bis(acetyloxy)-13-{[(2R,3S)-3-(benzoylamino)-2-hydroxy-3-phenylpropanoyl]oxy}-1,7-dihydroxy-9-oxo-5,20-epoxytax-11-en-2-yl benzoate]
- sensitivity to paclitaxel ([1]; HeyA8 cells harboring GFP-empty vector, 100 or 200 nM paclitaxel, 24 hours): high sensitivity
- cell viability in response to paclitaxel ([1]; HeyA8 cells transfected with rs1801018 variant (BCL2-Mut), p-value <0.05): significantly improved
- cell death / cell viability in response to paclitaxel ([1]; HeyA8 cells transfected with wild-type or random BCL2, 100 or 200 nM paclitaxel, 24 hours): reduced cell death
- relative cell death in response to paclitaxel [2]: decrease in relative cell death
- patients who required additional lines of diverse chemotherapies [3]: 226 patients
- patients who responded well to the first line of treatment [3]: 144 patients
- patients who require multiple lines [4]: 20 patients
- patients who responded to the first line of treatment [4]: 63 patients
